Source: patent US8859021B2, “Skin appearance through gene manipulation” (Sytheon, priority 2007, dated 2014)
Where two headings read alike, the source gives them in different places.

Test system: EpiDerm tissues
Conditions: retinol 10 μg/ml, Sytenol A 5 μg/ml, 2 days, vs 0.1% DMSO control

For `CC1=C(/C=C/C(C)=C/C=C/C(C)=C/CO)C(C)(C)CCC1` [Retinol, retinol], the “Fold Change, ACTN1 Alpha-actinin-1 (Alpha-actinin cytoskeletal isoform) (Table 8)” value was “+3.11 fold”, the “Fold Change, ACTN1 Alpha-actinin-1 (Alpha-actinin cytoskeletal isoform) (Table 9)” value was “+3.11 fold” and the “Fold Change, ACTN4 Alpha-actinin-4(F-actin cross-linking protein) (Table 8)” value was “+2.99 fold”. The “Fold Change, ACTN4 Alpha-actinin-4(F-actin cross-linking protein) (Table 9)” value was “+2.99 fold”, the “Fold Change, AFAP1L2 Actin filament-associated protein 1-like 2” value was “+2.84 fold” and the “Fold Change, C16orf30 Claudin-like protein 24” value was −2.23 fold. For the same molecule, the “Fold Change, CDH1 Epithelia-cadherin precursor (E-cadherin) (Table 7)” value was “+9.39 fold”, the “Fold Change, CDH1 Epithelial-cadherin precursor (E-cadherin) E-Cad/CTF1 (Table 9)” value was “+9.39 fold” and the “Fold Change, CDH3 Cadherin-3-precursor (P-cadherin)” value was “+3.99 fold”. The “Fold Change, CDH19 Cadherin-19-precursor” value was −4.11 fold, the “Fold Change, CDH24 Cadherin-24-precursor” value was “+2.06 fold” and the “Fold Change, CDK5R1 Tau protein kinase II 23 kDa subunit (Cyclin-dependent kinase 5 activator 1 precursor (CDK5 activator 1))” value was “+2.17 fold”. The “Fold Change, CLDN4 Claudin-4 (Clostridium perfringens enterotoxin receptor) (CPE-R)” value was “+3.63 fold”, the “Fold Change, CLDN5 Claudin-5 (Transmembrane protein deleted in VCFS)” value was −3.66 fold and the “Fold Change, CLDN6 Claudin-6 (Skullin 2)” value was “+2.59 fold”. For the same molecule, the “Fold Change, CLDN7 Claudin-7 (CLDN-7)” value was “+25.30 fold”, the “Fold Change, CLDN11 Claudin-11 (Oligodendrocyte-specific protein)” value was −2.86 fold and the “Fold Change, CLDN12 Claudin-12” value was “+3.73 fold”. For the same molecule, the “Fold Change, CLDN16 Claudin-16 (Paracellin-1) (PCLN-1)” value was “+7.79 fold”, the “Fold Change, COL1A2 Collagen alpha-2 (I) chain precursor (Alpa-2 type I collagen)” value was “+3.31 fold” and the “Fold Change, COL3A1 Collagen alpha-1 (III) chain precursor” value was −2.36 fold. For the same molecule, the “Fold Change, COL4A6 Collagen alpha-6 (IV) chain precursor” value was “+6.41 fold”, the “Fold Change, COL9A2 Collagen alpha-2 (IX) chain precursor” value was “+5.56 fold” and the “Fold Change, COL9A3 Collagen alpha-3 (IX) chain precursor” value was “+4.05 fold”. The “Fold Change, COL17A1 Collagen alpha-1 (XVII) chain precursor” value was “+3.5 fold”, the “Fold Change, CRABP1 Cellular retinoic acid-binding protein 1” value was “+2.83 fold” and the “Fold Change, CTHRC1 Collagen triple helix repeat-containing protein 1 precursor” value was −18.94 fold. The “Fold Change, CTNNAL1 Alpha-catenin-related protein (ACRP) (Table 8)” value was −2.60 fold, the “Fold Change, CTNNAL1 Alpha-catenin-related protein (ACRP) (Table 9)” value was −2.04 fold and the “Fold Change, CYP26B1 Cytochrome P450 26B1 (Retinoic acid-metabolizing cytochrome)” value was “+1.87 fold”. For the same molecule, the “Fold Change, Connective tissue growth factor precursor (Hypertrophic chondrocyte-specific protein 24)” value was −4.61 fold, the “Fold Change, DHRS9 NADP-dependent retinol dehydrogenase/reductase” value was “+5.48 fold” and the “Fold Change, DSC1 Desmocollin-1-precursor (DG2/DG3)” value was −7.49 fold. The “Fold Change, DSC2 Desmocollin-2-precursor (Desmocollin-3)” value was “+3.71 fold”, the “Fold Change, DSG1 Desmoglein-1-precursor (DG1)” value was −2.30 fold and the “Fold Change, DSG2 Desmoglein-2-precursor” value was “+13.03 fold”. For the same molecule, the “Fold Change, DSG3 Desmoglein-3-precursor” value was “+2.35 fold”, the “Fold Change, DSG4 Desmoglein-4-precursor” value was “No effect” and the “Fold Change, ECM1 Extracellular matrix protein 1 precursor” value was “No effect”. For the same molecule, the “Fold Change, ECM2 Extracellular matrix protein 2 precursor” value was “+4.98 fold”, the “Fold Change, ELA3B Elastase-3B precursor (Elastase IIIB)” value was “+5.89 fold” and the “Fold Change, F11R Junctional adhesion molecule 1 (JAM-1)” value was “+5.77 fold”. For the same molecule, the “Fold Change, FLNB Actin-binding-like protein” value was “+3.89 fold”, the “Fold Change, FLRT2 Fibronectin-like-domain-containing leucine-rich transmembrane protein 2” value was −2.67 fold and the “Fold Change, FLRT3 Fibronectin-like-domain-containing leucine-rich transmembrane protein 3” value was “+2.77 fold”. For the same molecule, the “Fold Change, FNDC7 Fibronectin type III domain containing 7” value was “No effect”, the “Fold Change, Fibroblast growth factor 9 (HBGF-9)” value was −12.36 fold and the “Fold Change, Fibroblast growth factor 23 precursor (FGF-23) (Tumor-derived hypophosphatemia-inducing factor)” value was −9.78 fold. The “Fold Change, Fibroblast growth factor receptor 2 precursor (FGFR-2)” value was “+6.50 fold”, the “Fold Change, Fibroblast growth factor-binding protein 1 precursor (FGF-BP1)” value was “+3.51 fold” and the “Fold Change, GSN Gelsolin precursor (Actin-depolymerizing factor) (ADF)” value was “+3.47 fold”. For the same molecule, the “Fold Change, HAS2 Hyaluronan synthase 2” value was −3.48 fold, the “Fold Change, HAS3 Hyaluronan synthase 3” value was “+10.88 fold” and the “Fold Change, HS3ST1 Heparan sulfate 3-O-sulfotransferase 1 (Table 6)” value was “+8.65 fold”. The “Fold Change, HS3ST1 Heparan sulfate glucosamine 3-O-sulfotransferase 1 precursor (Heparan sulfate 3-O-sulfotransferase 1) (Table 3)” value was “+8.65 fold”, the “Fold Change, HS6ST1 Heparan sulfate 6-O-sulfotransferase 1” value was “+2.26 fold” and the “Fold Change, HYAL1 Hyaluronidase-1-precursor” value was “+2.16 fold”. For the same molecule, the “Fold Change, Heparin-binding EGF-like growth factor precursor (HB-EGF)” value was “+3.89 fold”, the “Fold Change, IGSF1 Immunoglobulin superfamily, member 1 isoform 1” value was “+3.11 fold” and the “Fold Change, IGSF3 Immunoglobulin superfamily, member 3 isoform 2” value was “+5.81 fold”. The “Fold Change, ITG5 Integrin beta-5 precursor (Table 7)” value was −2.42 fold, the “Fold Change, ITGA6 Integrin alpha-6 precursor” value was “No effect” and the “Fold Change, ITGA7 Integrin alpha-7 precursor” value was −5.53 fold. The “Fold Change, ITGB2 Integrin beta-2-precursor” value was −3.54 fold, the “Fold Change, ITGB4 Integrin beta-4-precursor (Table 3)” value was “+3.48 fold” and the “Fold Change, ITGB4 Integrin beta-4 precursor (Table 7)” value was “+3.48 fold”. The “Fold Change, ITGB5 Integrin beta-5 precursor (Table 3)” value was −2.42 fold, the “Fold Change, ITGB6 Integrin beta-6-precursor (Table 3)” value was “+7.49 fold” and the “Fold Change, ITGB6 Integrin beta-6-precursor (Table 7)” value was “+7.49 fold”. For the same molecule, the “Fold Change, ITGB8 Integrin beta-8 precursor (Table 3)” value was “No effect”, the “Fold Change, ITGB8 Integrin beta-8 precursor (Table 7)” value was “No effect” and the “Fold Change, ITGBL1 Integrin beta-like 1” value was −4.38 fold. The “Fold Change, Insulin growth factor-like family member 3 precursor (IGBP-3)” value was −7.11 fold, the “Fold Change, Insulin growth factor-like family member 4 precursor (IGBP-4)” value was “+5.97 fold” and the “Fold Change, Insulin-like growth factor-binding protein 6 precursor (IGBP-6)” value was “+5.89 fold”. The “Fold Change, JUP Catenin gamma (Junction plakoglobin) (Table 8)” value was “+2.43 fold”, the “Fold Change, JUP Catenin gamma (Table 9)” value was “+2.43 fold” and the “Fold Change, KIF1C Kinesin-like protein KIF1C” value was “+2.47 fold”. For the same molecule, the “Fold Change, KIF2A Kinesin-like protein KIF2A” value was −3.62 fold, the “Fold Change, KIF4A Chromosome-associated kinesin KIF4A” value was “+2.08 fold” and the “Fold Change, KIF13A Kinsein-like protein KIF13A” value was −2.27 fold. The “Fold Change, KIF13B Kinsein-like protein KIF13B” value was “+2.91 fold”, the “Fold Change, KIF17 Kinesin-like protein KIF17” value was “+2.18 fold” and the “Fold Change, KIF26A Kinesin family member 26A” value was −2.93 fold. For the same molecule, the “Fold Change, KIFC2 Kinesin-like protein KIFC2” value was −2.45 fold, the “Fold Change, KRT2 Keratin-2; Cytokeratin-2e (CK 2e)” value was −8.37 fold and the “Fold Change, KRT5 Keratin-5, Cytokeratin-5 (CK-5)” value was “+2.39 fold”. The “Fold Change, KRT7 Keratin-7; Cytokeratin-7 (CK-7)” value was “+8.75 fold”, the “Fold Change, KRT13 Keratin-13; Cytokeratin-13 (CK-13)” value was “+14.17 fold” and the “Fold Change, KRT15 Keratin-15; Cytokeratin-15 (CK-15)” value was “+5.48 fold”. The “Fold Change, KRT19 Keratin-19; Cytokeratin-19 (CK-19)” value was “+11.27 fold”, the “Fold Change, LAMA3 Laminin subunit alpha-3 precursor (Epiligrin 170 kDa subunit)” value was “+4.70 fold” and the “Fold Change, LAMC2 Laminin subunit gamma-2 precursor (Laminin B2t chain)” value was “+2.68 fold”. The “Fold Change, LRAT Lecithin retinol acyltransferase” value was “+12.3 fold”, the “Fold Change, LRRC49 Tubulin polyglutamylase complex subunit 4 (PGs4)” value was −2.83 fold and the “Fold Change, MC1R, TUBB3 Tubulin beta-3-chain (Tubulin beta-III)” value was “+2.99 fold”. The “Fold Change, MMP9 Matrix metalloprotease-9-precursor” value was “+8.35 fold”, the “Fold Change, MMP15 Matrix metalloprotease-15 precursor” value was “+3.67 fold” and the “Fold Change, MMP21 Matrix metalloprotease-21 precursor” value was “No effect”. The “Fold Change, MMP23A, MMP23B Matrix metalloprotease-23” value was −5.78 fold, the “Fold Change, MMP26 Matrix metalloprotease-26-precursor (MMP-26)” value was “+4.31 fold” and the “Fold Change, MMP28 Matrix metalloprotease-28-precursor” value was “+3.88 fold”. For the same molecule, the “Fold Change, MYH14 Myosin-14” value was “+3.38 fold”, the “Fold Change, MYL2 Myosin regulatory light chain 2” value was “No effect” and the “Fold Change, MYO1F Myosin-lf (Myosin-le)” value was “+6.29 fold”. For the same molecule, the “Fold Change, MYO6 Myosin-VI” value was “No effect”, the “Fold Change, Mast/stem cell growth factor receptor precursor (SCFR) (Proto-oncogene tyrosine-protein kinase kit (c-kit))” value was −3.36 fold and the “Fold Change, NDST4 N-heparan sulfate sulfotransferase 4” value was “No effect”. The “Fold Change, NEIL2 DNA glycosylase/AP lyase Neil2” value was “+12.79 fold”, the “Fold Change, NF-kappa-B-activating protein” value was −2.13 fold and the “Fold Change, NGRN, TTLL13 Tubulin tyrosine ligase-like family, member 13” value was “+11.61 fold”. For the same molecule, the “Fold Change, NID2 Nidogen-2-precursor” value was −17.36 fold, the “Fold Change, NT5C1B, RDH14 Retinol dehydrogenase 14 (Alcohol dehydrogenase PAN20)” value was −5.33 fold and the “Fold Change, Nuclear factor Kappa B p105 unit (NF-kappa-B) (DNA-binding factor KBF 1)” value was −3.62 fold. The “Fold Change, PARP2 Poly (ADP-ribose) polymerase 2” value was “+2.08 fold”, the “Fold Change, PARP9 Poly (ADP-ribose) polymerase 9” value was “+5.92 fold” and the “Fold Change, PARP12 Poly (ADP-ribose) polymerase 12” value was “+4.69 fold”. For the same molecule, the “Fold Change, PARP15 Poly (ADP-ribose) polymerase 15” value was “+6.37 fold”, the “Fold Change, PCDH11X Procadherin-11” value was “+3.18 fold” and the “Fold Change, PCDH18 Procadherin-18-precursor” value was −2.49 fold. The “Fold Change, PCDH19 Procadherin-19-precursor” value was −3.41 fold, the “Fold Change, PCDHB1 Procadherin-beta-1-precursor” value was “No effect” and the “Fold Change, PCDHB2 Procadherin-beta-2-precursor” value was “No effect”. For the same molecule, the “Fold Change, PCDHB3 Procadherin-beta-3-precursor” value was −6.57 fold, the “Fold Change, PCDHB4 Procadherin-beta-4-precursor” value was −2.62 fold and the “Fold Change, PFN4 Profilin-4 (Profilin IV)” value was “+4.77 fold”. For the same molecule, the “Fold Change, PI3 Elastase-specific inhibitor” value was “+2.45 fold”, the “Fold Change, Protein Kinase B (RAC-alpha serine/threonine-protein kinase) (RAC-PK-alpha)” value was −5.09 fold and the “Fold Change, RARB Retinoic acid receptor beta-1” value was “+5.63 fold”. For the same molecule, the “Fold Change, RARG Retinoic acid receptor gama-1” value was “+1.87 fold”, the “Fold Change, RARRES1 Retinoic acid receptor responder protein 1” value was “+13.25 fold” and the “Fold Change, RBP1 Cellular Retinol-binding protein-I” value was “+2.6 fold”. The “Fold Change, RBP2 Cellular Retinol-binding protein-II” value was “No effect”, the “Fold Change, RBP7 Cellular retinoic acid-binding protein 4” value was “No effect” and the “Fold Change, RETSAT All-trans-retinol 13,14-reductase precursor” value was −2.97 fold. The “Fold Change, SELE E-selection precursor (Endothelial leukocyte adhesion molecule 1) (ELAM-1)” value was −2.11 fold, the “Fold Change, SERPINB1 Leukocyte elastase inhibitor” value was “+3.80 fold” and the “Fold Change, SIR2-like protein1/NAD-dependent deacetylase sirtuin-1 (hSIRT1)” value was −1.89 fold. For the same molecule, the “Fold Change, SIR2-like protein2/NAD-dependent deacetylase sirtuin-2” value was “+1.52 fold”, the “Fold Change, SIR2-like protein7/NAD-dependent deacetylase sirtuin-7” value was “+1.58 fold” and the “Fold Change, SRRM1 Serine/arginine repetitive matrix protein 1 (SR-related nuclear matrix protein 160 kDa) (SRm160)” value was “+3.57 fold”. The “Fold Change, TBCEL Tubulin-specific chaperone cofactor E-like protein (EL)” value was “+2.20 fold”, the “Fold Change, TTBK1 Tau-tubulin kinase 1” value was −7.99 fold and the “Fold Change, TTLL1 Tubulin polyglutamylase complex subunit 3 (PGs3)” value was “+1.92 fold”. For the same molecule, the “Fold Change, TUBB2B Tubulin beta-2B chain” value was −2.56 fold, the “Laminins gene regulation (in words)” value was “up-regulate” and the “Fold Change, ITGA7 Integrin alpha-7 precursor” value (listed as retinol) was “significant down-regulatory effect”. For the same molecule, the “Fold Change, ITGB5 Integrin beta-5 precursor (Table 3)” value (listed as retinol) was “significant down-regulatory effect”, the “Fold Change, ITGBL1 Integrin beta-like 1” value (listed as retinol) was “significant down-regulatory effect” and the “Fold Change, NID2 Nidogen-2-precursor” value (listed as retinol) was “significant down-regulation”.
